Earlier results on 1 substance are cited in patent publication US6432453B1, “Dietary supplement containing glycerol ester of conjugated linoleic acid and rosemary extract containing carnosic acid” (Metagenics, Inc., priority 2000, dated 2002).

Where two headings read alike, the source gives them in different places.

For series [1] the following is noted: CLA-supplemented subjects, three months, no change of diet.
The conditions of series [2]: free fatty acid form.

conjugated linoleic acid [CLA]: the body fat lost result in series [1] was “up to 20%”. Also, the “half-life (oxidation)” value in series [2] (25° C.) is 336 h; in series [2] (75° C.), 7 h.
